According to article PMC9775191, “A Subset Screen of the Compounds Australia Scaffold Library Identifies 7-Acylaminodibenzoxazepinones as Potent and Selective Hits for Anti-Giardia Drug Discovery” (Biomedicines, 2022):
Read-outs that look alike come from different tables or passages of the source.

Tests used:
[1] = tested on: Acinetobacter baumannii (ATCC 19606); assay: Anti-bacterial activity assay; assay type: cell-based; conditions: ATCC19606, 50 µM
Procedure: (§1) The activity of compounds against methicillin resistant Staphylococcus aureus (ATCC 43300), Escherichia coli (ATCC 25922), Acinetobacter baumannii (ATCC 19606) and Klebsiella pneumoniae (ATCC 700603) was assessed at 50 µM in duplicate as previously described. In brief, mid-log phase bacteria cultures were added to 384-well microtiter plate wells containing compound to final cell density of 5 × 10^5 CFU/mL in 50 µL. Plates were then covered and incubated at 37 °C for 18 h without shaking. Inhibition of bacterial growth was determined by measuring absorbance at 600 nm (Tecan M1000 Pro monochromator plate reader) and calculating percentage growth inhibition relative to the negative media and bacteria without inhibitors. Vancomycin hydrochloride (Sigma-Aldrich an affiliate of Merck KGaA, Darmstadt, Germany, #861987) and colistin sulfate (Sigma-Aldrich an affiliate of Merck KGaA, Darmstadt, Germany, C4461) were on each plate as positive controls for Gram-positive (S. aureus) and Gram-negative (E. coli, A. baumannii and K. pneumoniae) bacteria, respectively.

[2] = tested on: Klebsiella pneumoniae (ATCC 700603); assay: Anti-bacterial activity assay; assay type: cell-based; conditions: ATCC700603, 50 µM, read-out: Bacterial Inhibition K. pneumoniae
Procedure: as §1

[3] = tested on: methicillin resistant Staphylococcus aureus (ATCC 43300); assay: Anti-bacterial activity assay; assay type: cell-based; conditions: Staphylococcus aureus, ATCC43300, 50 µM; read-out: Bacterial Inhibition S. aureus
Procedure: as §1

[4] = tested on: Escherichia coli (ATCC 25922); assay: Anti-bacterial activity assay; assay type: cell-based; conditions: Escherichia coli, ATCC25922, 50 µM; read-out: Bacterial Inhibition E. coli
Procedure: as §1

[5] = tested on: G. duodenalis BRIS/91/HEPU/1279; assay: Primary Giardia screen at 10 µM (live-cell imaging, automated counting); assay type: cell-based, Giardia duodenalis; conditions: for inhibition at 10 µM: Giardia duodenalis
How it was run: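 Percent growth versus 0.2% DMSO vehicle, background-corrected with media-only wells, is reported at 24 and 48 h from automated live-cell counts. Testing used 10 μM final in a 3% O2 atmosphere, with plate quality checked by Z' factor.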

[6] = tested on: Neonatal foreskin fibroblast (NFF) cells; assay: Mammalian cell cytotoxicity assay (sulforhodamine B); assay type: cell-based, human; conditions: for inhibition at 20 µM / IC50: Homo sapiens, NFF; for inhibition at 20 µM: ±SD; for SI (48h Gd): NFF vs 48 h Giardia IC50; for Selectivity: NFF IC50 divided by G. duodenalis BRIS/91/HEPU/1279 IC50
Procedure: The selectivity of compounds of interest was assessed against NFF cells. Assays were performed using sulforhodamine B and included media only, negative (no compound, no DMSO), and vehicle (DMSO) controls as previously described. A chloroquine control plate was included in each assay. […] Repurchased SN00797640 was tested in dose–response from 100 µM against NFF. Selectivity indices (SI) were calculated by dividing mammalian cell IC50 values by G. duodenalis BRIS/91/HEPU/1279 IC50 values.

[7] = tested on: G. duodenalis BRIS/91/HEPU/1279; assay: Giardia dose response assay, assemblage B; assay type: cell-based, Giardia duodenalis
Procedure: In these assays, compounds were serially diluted (8–12-point doubling dilutions in technical duplicate) in DMSO control media, with all test wells inoculated with parasites (1.5 × 10^4 parasites for BRIS/91/HEPU/1279 and BRIS/91/HEPU/1279m1, or 3 × 10^3 parasites for BRIS/87/HEPU/713). […] All plates were sealed in culture chambers and gassed with 3% O2, 5% CO2 in N2 and incubated at 37 °C for 48 h, with parasites imaged and enumerated at 24 and 48 h. Growth inhibition was calculated as a percentage relative to vehicle controls minus any background as described above and IC50 values were determined using log-linear interpolation as previously described. […] Statistical comparison of IC50 values when required were performed using Student’s t-test.

[8] = 24 h, first singlicate assay, read-out: % Inhibition n=1 24h
[9] = 24 h, re-assessment, read-out: % Inhibition n=2 24h
[10] = 24 h, read-out: Average % Inhibition 24h
[11] = 48 h, first singlicate assay, read-out: % Inhibition n=1 48h
[12] = 48 h, re-assessment, read-out: % Inhibition n=2 48h
[13] = 48 h, read-out: Average % Inhibition 48h
[14] = Giardia duodenalis, 24 h, read-out: G. duodenalis IC50 24h, Table S2, 24 h, ±SD, max 10 µM
[15] = Giardia duodenalis, 48 h, Table S2, 48 h, ±SD, max 10 µM, read-out: G. duodenalis IC50 48h
[16] = Giardia duodenalis, 48 h, BRIS/91/HEPU/1279, 48 h, mean ± SD, read-out: IC50 Giardia (48 h)
[17] = BRIS/91/HEPU/1279, 48 h, mean ± SD, read-out: IC50 Giardia (48 h)

Cc1ncc([N+](=O)[O-])n1Cc1csc(Cc2ccccc2)n1 [SN00780011, O=N(=O)c1cnc(C)n1Cc1csc(Cc2ccccc2)n1]
inhibition at 50 µM [1]: 10.5%
inhibition at 50 µM [2]: 16.4%
inhibition at 50 µM [3]: 11.7%
inhibition at 50 µM [4]: 8.95%
inhibition at 10 µM [5, 8]: 33.3%
inhibition at 10 µM [5, 9]: 27%
inhibition at 10 µM [5, 10]: 30.1%
inhibition at 10 µM [5, 11]: 54.9%
inhibition at 10 µM [5, 12]: 79.2%
inhibition at 10 µM [5, 13]: 67.1%
inhibition at 20 µM [6]: 9.2 ± 12.4%
SI (48h Gd) ([6]; Table S2): > 3
IC50 [7, 14]: > 10 µM
IC50 [7, 15]: 5.48 µM

Cc1cccc(C(=O)Nc2ccc3c(c2)Oc2ccccc2C(=O)N3C)c1 [SN00797639]
IC50 [7, 16]: > 10 µM

Cc1ccc(C(=O)Nc2ccc3c(c2)Oc2ccccc2C(=O)N3C(C)C)cc1 [SN00797658]
IC50 [7, 16]: > 10 µM

CN1C(=O)c2ccccc2Oc2cc(NC(=O)c3ccoc3)ccc21 [SN00797644]
IC50 [7, 16]: > 10 µM

CC(C)N1C(=O)c2ccccc2Oc2cc(NC(=O)C3CC(=O)N(c4ccccc4)C3)ccc21 (stereo not shown) [SN00797655]
IC50 [7, 16]: > 10 µM

Cc1ccc(C(=O)NCC(=O)Nc2ccc3c(c2)Oc2ccccc2C(=O)N3C(C)C)cc1 [SN00797656]
IC50 [7, 16]: > 10 µM

CC(C)N1C(=O)c2ccccc2Oc2cc(NC(=O)c3ccccc3)ccc21 [SN00797661]
IC50 [7, 16]: > 10 µM

CC(C)c1ccc(Nc2ncccc2S(=O)(=O)N2CCCC2)cc1 [SN00799289, CC(C)c1ccc(cc1)Nc1ncccc1S(=O)(=O)N1CCCC1]
inhibition at 50 µM [1]: 4.74%
inhibition at 50 µM [2]: 14.4%
inhibition at 50 µM [3]: 3.06%
inhibition at 50 µM [4]: 1.89%
inhibition at 10 µM [5, 8]: 43.9%
inhibition at 10 µM [5, 9]: 10.1%
inhibition at 10 µM [5, 10]: 27%
inhibition at 10 µM [5, 11]: 73.3%
inhibition at 10 µM [5, 12]: 41.7%
inhibition at 10 µM [5, 13]: 57.5%
inhibition at 20 µM [6]: 11.4 ± 13.4%
SI (48h Gd) ([6]; Table S2): > 5
IC50 [7, 14]: > 10 µM
IC50 [7, 15]: 3.36 ± 1.52 µM

CCOc1ccc(C(=O)Nc2ccc3c(c2)N(C(C)C)C(=O)c2ccccc2O3)cc1 [SN00797660]
inhibition at 10 µM [5, 11]: 33.8%
IC50 [7, 16]: > 10 µM

CN1C(=O)c2ccccc2Oc2cc(NC(=O)CNC(=O)c3ccco3)ccc21 [SN00797638]
IC50 [7, 16]: > 10 µM

CN1C(=O)c2ccccc2Oc2cc(NC(=O)c3cc4cc(Cl)ccc4[nH]3)ccc21 [SN00797649]
IC50 [7, 16]: > 10 µM

CCn1ccc(C(=O)Nc2ccc3c(c2)Oc2ccccc2C(=O)N3C(C)C)n1 [SN00797664]
IC50 [7, 16]: > 10 µM

Cc1ccc(N2CC(C(=O)Nc3ccc4c(c3)Oc3ccccc3C(=O)N4C)CC2=O)cc1C (stereo not shown) [SN00797636]
IC50 [7, 16]: > 10 µM

CC(=O)Nc1cccc(C(=O)Nc2ccc3c(c2)Oc2ccccc2C(=O)N3C(C)C)c1C [SN00797651]
IC50 [7, 16]: > 10 µM

COc1ccc(C(=O)Nc2ccc3c(c2)Oc2ccccc2C(=O)N3C(C)C)c(OC)c1 [SN00797650]
IC50 [7, 16]: > 10 µM

CN1C(=O)c2ccccc2Oc2cc(NC(=O)c3cccc(Br)c3)ccc21 [SN00797645]
IC50 [7, 16]: > 10 µM

CCc1ccc(C(=O)Nc2ccc3c(c2)Oc2ccccc2C(=O)N3C)cc1 [SN00797643]
IC50 ([6]; mean ± SD, read-out: IC50 NFF): > 10 µM
Selectivity [6]: >20
IC50 [7, 16]: 0.47 µM

COc1cc(OC)cc(C(=O)Nc2ccc3c(c2)Oc2ccccc2C(=O)N3C)c1 [SN00797637]
IC50 [7, 16]: 5 µM

CN1C(=O)c2ccccc2Oc2cc(NC(=O)c3cc4ccccc4[nH]3)ccc21 [SN00797648]
IC50 ([6]; mean ± SD, read-out: IC50 NFF): > 20 µM
Selectivity [6]: >11
IC50 [7, 17]: 1.7 µM
IC50 [7, 16]: 1.4 µM

CC(C)N1C(=O)c2ccccc2Oc2cc(NC(=O)c3cccs3)ccc21 [SN00797657]
IC50 [7, 16]: > 10 µM

Cc1cc2[nH]c(C(=O)Nc3ccccc3C)c(CN3CCOCC3)c2s1 [SN00798525, Cc1cc2[nH]c(C(=O)Nc3ccccc3C)c(CN3CCOCC3)c2s1]
inhibition at 50 µM [1]: 4.92%
inhibition at 50 µM [2]: 6.11%
inhibition at 50 µM [3]: 22.2%
inhibition at 50 µM [4]: -0.27%
Average % Inhibition 48h ([5]; 48 h): > 90%
inhibition at 10 µM [5, 8]: 91.4%
inhibition at 10 µM [5, 9]: 97.9%
inhibition at 10 µM [5, 10]: 94.7%
inhibition at 10 µM [5, 11]: 96.5%
inhibition at 10 µM [5, 12]: 98.8%
inhibition at 10 µM [5, 13]: 97.6%
IC50 ([6]; Table S2, max 10 µM, read-out: NFF IC50): > 10 µM

CC(C)N1C(=O)c2ccccc2Oc2cc(NC(=O)C3CCCCC3)ccc21 [SN00797659]
IC50 [7, 16]: > 10 µM

CC(C)N1C(=O)c2ccccc2Oc2cc(NC(=O)CNC(=O)c3ccco3)ccc21 [SN00797652]
IC50 [7, 16]: > 10 µM

Cc1ccc(N2CC(C(=O)Nc3ccc4c(c3)Oc3ccccc3C(=O)N4C(C)C)CC2=O)cc1C (stereo not shown) [SN00797653]
IC50 [7, 16]: > 10 µM

COc1ccc(C(=O)Nc2ccc3c(c2)Oc2ccccc2C(=O)N3C)c(OC)c1 [SN00797635]
IC50 [7, 16]: > 10 µM

COc1ccc(OCC(=O)Nc2ccc3c(c2)Oc2ccccc2C(=O)N3C(C)C)cc1 [SN00797662]
IC50 [7, 16]: > 10 µM

Cc1cc(-c2cc(C(=O)Nc3c(C)n(C)n(-c4ccccc4)c3=O)c3cnn(C(C)C)c3n2)c(C)o1 [SN00776477]
inhibition at 10 µM [5, 11]: 0%
IC50 [7, 16]: > 10 µM

Cc1ccc(NC(=O)c2oc3ccccc3c2NC(=O)c2ccccc2)cc1 [SN00785329]
IC50 [7, 16]: > 10 µM

CN1C(=O)c2ccccc2Oc2cc(NC(=O)COc3ccc(Cl)cc3)ccc21 [SN00797641]
IC50 [7, 16]: > 10 µM

Cc1ccc(C(=O)Nc2ccc3c(c2)Oc2ccccc2C(=O)N3C(C)C)cc1F [SN00797663]
IC50 [7, 16]: > 10 µM

CN1C(=O)c2ccccc2Oc2cc(NC(=O)C3(c4ccccc4)CC3)ccc21 [SN00797642]
IC50 [7, 16]: > 10 µM

CN1C(=O)c2ccccc2Oc2cc(NC(=O)c3ccccc3)ccc21 [SN00797647]
IC50 [7, 16]: > 10 µM

COc1ccc(C(=O)Nc2ccc3c(c2)Oc2ccccc2C(=O)N3C)cc1OC [SN00797646]
IC50 [7, 17]: > 8.6 µM
IC50 [7, 16]: 8.6 µM

Cc1ccc(N2CC(C(=O)Nc3ccc4c(c3)Oc3ccccc3C(=O)N4C(C)C)CC2=O)cc1 (stereo not shown) [SN00797654]
IC50 [7, 16]: > 10 µM

COc1cccc(Nc2nc(N3CCN(c4ccccc4)CC3)nc3c2cnn3C)c1 [SN00788187]
% Inhibition n=1 48h ([5]; 48 h, first singlicate assay): 5.8%

Cc1ccc(COCc2nn(C)c3c2CN(C(=O)Nc2ccccc2)CC3)cc1 [SN00796435]
% Inhibition n=1 48h ([5]; 48 h, first singlicate assay): 0.0%

CCCn1nnc(NCc2ccc(OCc3ccccc3)cc2)n1 [SN00794214]
% Inhibition n=1 48h ([5]; 48 h, first singlicate assay): 16.1%

COc1cc(NC(=O)N2CCN(c3cc(N(C)C)nc(C)n3)CC2)cc(OC)c1 [SN00786504]
Average % Inhibition 24h ([5]; 24 h): 4.9%
% Inhibition n=1 24h ([5]; 24 h, first singlicate assay): 9.8%
% Inhibition n=2 24h ([5]; 24 h, re-assessment): 0.0%
Average % Inhibition 48h ([5]; 48 h): 27.5%
% Inhibition n=1 48h ([5]; 48 h, first singlicate assay): 55.1%
% Inhibition n=2 48h ([5]; 48 h, re-assessment): 0.0%

O=C1OCCN1CCCN1CCCC(c2nc3ccccc3o2)C1 (stereo not shown) [SN00780555]
% Inhibition n=1 48h ([5]; 48 h, first singlicate assay): 0.0%

CCCCN1CCN(C(=O)c2cc3c(=O)n(CC(C)C)c4ccccc4n3n2)CC1 [SN00802291]
% Inhibition n=1 48h ([5]; 48 h, first singlicate assay): 12.0%

Cc1nnc(-c2ccc3ccn(CC(=O)NC4CC4)c3c2)o1 [SN00798392]
% Inhibition n=1 48h ([5]; 48 h, first singlicate assay): 0.0%
